In ChEMBL document CHEMBL1133521, “Multiple-conformation and protonation-state representation in 4D-QSAR: the neurokinin-1 receptor system” (J Med Chem, 2000):

Molecular target: Substance-P receptor (Homo sapiens, UniProt P25103)
Assay: Inhibitory activity against Tachykinin receptor 1

Chain of Substance-P receptor (P25103 whole entry): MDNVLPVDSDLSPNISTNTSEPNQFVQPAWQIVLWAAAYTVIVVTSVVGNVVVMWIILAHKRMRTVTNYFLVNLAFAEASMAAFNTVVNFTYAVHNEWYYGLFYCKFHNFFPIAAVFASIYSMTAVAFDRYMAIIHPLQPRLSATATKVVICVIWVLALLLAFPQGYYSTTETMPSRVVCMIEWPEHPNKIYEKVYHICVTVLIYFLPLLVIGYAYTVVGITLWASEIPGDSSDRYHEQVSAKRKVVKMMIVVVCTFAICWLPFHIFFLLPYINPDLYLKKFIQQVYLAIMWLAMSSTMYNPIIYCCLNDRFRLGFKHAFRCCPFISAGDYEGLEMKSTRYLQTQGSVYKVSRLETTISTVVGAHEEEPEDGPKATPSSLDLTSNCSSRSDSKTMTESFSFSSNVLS

SMILES | IC50
CN(CC(c1ccccc1)N1CCN(C2CCCCC2)CC1)C(=O)Cc1cc(C(F)(F)F)cc(C(F)(F)F)c1 (stereo unspecified) | 2 nM
COc1ccccc1C(CNC(=O)Cc1ccc(Cl)c(Cl)c1)N1CCN(C2CCCCC2)CC1 (stereo unspecified) | 280 nM
O=C(Cc1cc(C(F)(F)F)cc(C(F)(F)F)c1)NCC(c1cc(Cl)cc(Cl)c1Cl)N1CCC(N2CCCCC2)CC1 (stereo unspecified) | 6.4 nM
O=C(Cc1cc(C(F)(F)F)cc(C(F)(F)F)c1)NCC(c1cccc(C(F)(F)F)c1F)N1CCC(N2CCCCC2)CC1 (stereo unspecified) | 1.7 nM
CN(CC(c1ccc(F)c(Cl)c1)N1CCC(N2CCCCC2)CC1)C(=O)Cc1cc(C(F)(F)F)cc(C(F)(F)F)c1 (stereo unspecified) | 1.7 nM
COc1ccccc1C(C1CCCCN1C(=O)Cc1cc(C(F)(F)F)cc(C(F)(F)F)c1)N1CCC(N2CCCCC2)CC1 (stereo unspecified) | 4.3 nM
CN(CC(c1cccc2c1OCO2)N1CCC(N2CCCCC2)CC1)C(=O)Cc1ccccc1Br (stereo unspecified) | 6 nM
O=C(Cc1cc(C(F)(F)F)cc(C(F)(F)F)c1)NCC(c1cccc2ccccc12)N1CCN(C2CCCCC2)CC1 (stereo unspecified) | 2.8 nM
O=C(Cc1cc(C(F)(F)F)cc(C(F)(F)F)c1)NCC(c1cccc2ccccc12)N1CCC(N2CCCCC2)CC1 (stereo unspecified) | 14 nM
COc1ccccc1CC(=O)N(C)CC(c1cccc2c1OCO2)N1CCC(N2CCCCC2)CC1 (stereo unspecified) | 16 nM
COc1ccccc1C(CNC(=O)Cc1cc(C(F)(F)F)cc(C(F)(F)F)c1)N1CCC(O)(c2ccccc2)CC1 (stereo unspecified) | 130 nM
COc1ccccc1C(CNC(=O)Cc1cc(C(F)(F)F)cc(C(F)(F)F)c1)N1CCN(C2Cc3ccccc3C2)CC1 (stereo unspecified) | 7.2 nM
Cc1c(F)cccc1C(CNC(=O)Cc1cc(C(F)(F)F)cc(C(F)(F)F)c1)N1CCC(N2CCCCC2)CC1 (stereo unspecified) | 3 nM
O=C(Cc1cc(C(F)(F)F)cc(C(F)(F)F)c1)NCC(c1cccc(F)c1)N1CCC(N2CCCCC2)CC1 (stereo unspecified) | 4.6 nM
O=C(Cc1cc(C(F)(F)F)cc(C(F)(F)F)c1)NCC(c1ccc(Cl)c(Cl)c1)N1CCC(N2CCCCC2)CC1 (stereo unspecified) | 0.75 nM
COc1cccc(C(CNC(=O)Cc2cc(C(F)(F)F)cc(C(F)(F)F)c2)N2CCC(N3CCCCC3)CC2)c1 (stereo unspecified) | 1.5 nM
COc1ccc(C(CNC(=O)Cc2cc(C(F)(F)F)cc(C(F)(F)F)c2)N2CCC(N3CCCCC3)CC2)c(OC)c1OC (stereo unspecified) | 210 nM
CN(CC(c1cccc2c1OCO2)N1CCC(N2CCCCC2)CC1)C(=O)Cc1cc(C(F)(F)F)cc(C(F)(F)F)c1 (stereo unspecified) | 1.8 nM
O=C(Cc1cc(C(F)(F)F)cc(C(F)(F)F)c1)NCC(c1ccc(F)c(Cl)c1)N1CCC(N2CCCCC2)CC1 (stereo unspecified) | 2.9 nM
CN(CC(c1cccc2c1OCO2)N1CCC(N2CCCCC2)CC1)C(=O)Cc1ccccc1Cl (stereo unspecified) | 12 nM
CN(CC(c1ccc2c(c1)OCO2)N1CCC(N2CCCCC2)CC1)C(=O)Cc1cc(C(F)(F)F)cc(C(F)(F)F)c1 (stereo unspecified) | 4.8 nM

SMILES | IC50
Cc1c(F)cccc1C(CN(C)C(=O)Cc1cc(C(F)(F)F)cc(C(F)(F)F)c1)N1CCC(N2CCCCC2)CC1 (stereo unspecified) | 1.4 nM
CN(CC(c1ccccc1Br)N1CCC(N2CCCCC2)CC1)C(=O)Cc1cc(C(F)(F)F)cc(C(F)(F)F)c1 (stereo unspecified) | 1.1 nM
O=C(Cc1cc(C(F)(F)F)cc(C(F)(F)F)c1)NCC(c1ccc(Cl)c(Cl)c1)N1CCC(N(CCO)CCO)CC1 (stereo unspecified) | 5.2 nM
COc1ccccc1C(CNC(=O)Cc1cc(C)cc(C)c1)N1CCC(N2CCCCC2)CC1 (stereo unspecified) | 61 nM
O=C(Cc1cc(C(F)(F)F)cc(C(F)(F)F)c1)NCC(c1ccc(F)cc1Cl)N1CCC(N2CCCCC2)CC1 (stereo unspecified) | 1.7 nM
CN(CC(Cc1ccccc1)N1CCC(N2CCCCC2)CC1)C(=O)Cc1cc(C(F)(F)F)cc(C(F)(F)F)c1 (stereo unspecified) | 32 nM
COc1ccccc1C(CNC(=O)Cc1cccc(OC(C)C)c1)N1CCN(C2CCCCC2)CC1 (stereo unspecified) | 130 nM
CN(CC(c1ccc(F)c(F)c1F)N1CCC(N2CCCCC2)CC1)C(=O)Cc1cc(C(F)(F)F)cc(C(F)(F)F)c1 (stereo unspecified) | 1.8 nM
O=C(Cc1cc(C(F)(F)F)cc(C(F)(F)F)c1)N1CCCCC1C(CN1CCC(N2CCCCC2)CC1)c1ccccc1 (stereo unspecified) | 1500 nM
COc1ccc(OC)c(C(CNC(=O)Cc2cc(C(F)(F)F)cc(C(F)(F)F)c2)N2CCC(N3CCCCC3)CC2)c1 (stereo unspecified) | 110 nM
COc1cc(C(=O)N(C)CC(c2cccc3c2OCO3)N2CCC(N3CCCCC3)CC2)cc(OC)c1OC (stereo unspecified) | 37 nM
CC(C)C1CCN(C2CCN(C(CN(C)C(=O)Cc3cc(C(F)(F)F)cc(C(F)(F)F)c3)c3ccc(Cl)c(Cl)c3)CC2)CC1 (stereo unspecified) | 15 nM
Cc1cc(C)cc(CC(=O)N(C)CC(c2cccc3c2OCO3)N2CCC(N3CCCCC3)CC2)c1 (stereo unspecified) | 2.9 nM
O=C(Cc1cc(C(F)(F)F)cc(C(F)(F)F)c1)NCC(c1ccccc1)N1CCC(N2CCCCC2)CC1 (stereo unspecified) | 5.4 nM
CN(CC(c1cccc2c1OCO2)N1CCC(N2CCCCC2)CC1)C(=O)C(c1ccccc1)c1ccccc1 (stereo unspecified) | 22 nM
O=C(Cc1cc(C(F)(F)F)cc(C(F)(F)F)c1)NCC(c1ccc2c(c1)OCCO2)N1CCC(N2CCCCC2)CC1 (stereo unspecified) | 140 nM
COc1cccc(C(CNC(=O)Cc2cc(C(F)(F)F)cc(C(F)(F)F)c2)N2CCC(N3CCCCC3)CC2)c1OC (stereo unspecified) | 7.6 nM
COc1ccc(C(CN(C)C(=O)Cc2cc(C(F)(F)F)cc(C(F)(F)F)c2)N2CCC(N3CCCCC3)CC2)c(OC)c1OC (stereo unspecified) | 12 nM
CC(C)N1CCN(C(CNC(=O)Cc2cc(C(F)(F)F)cc(C(F)(F)F)c2)c2cccc3c2OCO3)CC1 (stereo unspecified) | 6.9 nM
COc1ccccc1C(CNC(=O)Cc1cc(C(F)(F)F)cc(C(F)(F)F)c1)N1CCC(N2CCCCC2)CC1 (stereo unspecified) | 2.4 nM
O=C(Cc1cc(C(F)(F)F)cc(C(F)(F)F)c1)NCC(C(c1ccccc1)c1ccccc1)N1CCC(N2CCCCC2)CC1 (stereo unspecified) | 130 nM

SMILES | IC50
CN(CC(c1ccc(Cl)c(Cl)c1)N1CCC(N2CCCCC2)CC1)C(=O)Cc1cc(C(F)(F)F)cc(C(F)(F)F)c1 (stereo unspecified) | 2.3 nM
COc1ccccc1C(CNC(=O)Cc1cc(C(F)(F)F)cc(C(F)(F)F)c1)N1CCCCC1 (stereo unspecified) | 250 nM
O=C(Cc1cc(C(F)(F)F)cc(C(F)(F)F)c1)NCC(c1ccccc1Br)N1CCC(N2CCCCC2)CC1 (stereo unspecified) | 0.88 nM
CN(CC(c1cccc(C(F)(F)F)c1F)N1CCC(N2CCCCC2)CC1)C(=O)Cc1cc(C(F)(F)F)cc(C(F)(F)F)c1 (stereo unspecified) | 1.4 nM
O=C(Cc1cc(C(F)(F)F)cc(C(F)(F)F)c1)NCC(Cc1ccccc1)N1CCC(N2CCCCC2)CC1 (stereo unspecified) | 81 nM
COc1ccc(CC(=O)NCC(c2ccccc2OC)N2CCN(C3CCCCC3)CC2)cc1 (stereo unspecified) | 2200 nM
O=C(Cc1cc(C(F)(F)F)cc(C(F)(F)F)c1)NCC(c1ccc(F)c(F)c1)N1CCC(N2CCCCC2)CC1 (stereo unspecified) | 3.3 nM
CC(C)Oc1cccc(CC(=O)NCC(c2ccc(Cl)c(Cl)c2)N2CCC(N3CCCCC3)CC2)c1 (stereo unspecified) | 5 nM
CC(C)N1CCN(C(CN(C)C(=O)Cc2cc(C(F)(F)F)cc(C(F)(F)F)c2)c2cccc3c2OCO3)CC1 (stereo unspecified) | 1.4 nM
CN(CC(c1ccc(F)cc1Cl)N1CCC(N2CCCCC2)CC1)C(=O)Cc1cc(C(F)(F)F)cc(C(F)(F)F)c1 (stereo unspecified) | 1.5 nM
O=C(Cc1cc(C(F)(F)F)cc(C(F)(F)F)c1)NCC(c1cccc2c1OCO2)N1CCN(C2CCCCC2)CC1 (stereo unspecified) | 1.6 nM
CN(CC(c1cc(Cl)cc(Cl)c1Cl)N1CCC(N2CCCCC2)CC1)C(=O)Cc1cc(C(F)(F)F)cc(C(F)(F)F)c1 (stereo unspecified) | 3 nM
CN(CC(c1ccc2c(c1)OCCO2)N1CCC(N2CCCCC2)CC1)C(=O)Cc1cc(C(F)(F)F)cc(C(F)(F)F)c1 (stereo unspecified) | 8.9 nM
COc1ccccc1C(CNC(=O)Cc1ccccc1C(F)(F)F)N1CCN(C2CCCCC2)CC1 (stereo unspecified) | 270 nM
COc1ccccc1C(CNC(=O)Cc1cc(C)cc(C)c1)N1CCN(C2CCCCC2)CC1 (stereo unspecified) | 15 nM
COc1ccccc1C(CNC(=O)Cc1ccc(Cl)cc1)N1CCN(C2CCCCC2)CC1 (stereo unspecified) | 850 nM
CN(CCc1cc(C(F)(F)F)cc(C(F)(F)F)c1)C(=O)C(Cc1c[nH]c2ccccc12)N1CCN(C2CCCCC2)CC1 (stereo unspecified) | 12 nM
CN(CC(c1cccc2c1OCO2)N1CCN(C2CCCCC2)CC1)C(=O)Cc1cc(C(F)(F)F)cc(C(F)(F)F)c1 (stereo unspecified) | 1.3 nM
COc1cccc(C(CN(C)C(=O)Cc2cc(C(F)(F)F)cc(C(F)(F)F)c2)N2CCC(N3CCCCC3)CC2)c1OC (stereo unspecified) | 10 nM
